# Test results taken from ChEMBL document CHEMBL4145649, “Identification of the 4-Position of 3-Alkynyl and 3-Heteroaromatic Substituted Pyridine Methanamines as a Key Modification Site Eliciting Increased Potency and Enhanced Selectivity for Cytochrome P-450 2A6 Inhibition” (J Med Chem, 2018).
# Molecular target: T1, Cytochrome P450 2C8 (Homo sapiens, UniProt P10632)
# T1 sequence (P10632 whole entry): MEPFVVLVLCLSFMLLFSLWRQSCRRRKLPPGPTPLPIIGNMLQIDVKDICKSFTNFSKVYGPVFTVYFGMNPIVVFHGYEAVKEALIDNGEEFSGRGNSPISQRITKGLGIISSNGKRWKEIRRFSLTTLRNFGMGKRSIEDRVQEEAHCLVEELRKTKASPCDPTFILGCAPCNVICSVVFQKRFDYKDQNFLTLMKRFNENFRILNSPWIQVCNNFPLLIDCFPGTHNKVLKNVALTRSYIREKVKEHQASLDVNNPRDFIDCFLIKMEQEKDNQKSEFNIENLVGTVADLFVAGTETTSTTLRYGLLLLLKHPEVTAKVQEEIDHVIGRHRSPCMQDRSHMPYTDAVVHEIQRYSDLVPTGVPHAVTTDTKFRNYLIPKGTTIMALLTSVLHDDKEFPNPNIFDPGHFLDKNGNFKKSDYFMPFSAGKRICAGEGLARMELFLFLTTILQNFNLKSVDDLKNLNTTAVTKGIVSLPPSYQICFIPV
# Assay: Inhibition of CYP2C8 in human liver microsomes using amodiaquine as substrate preincubated for 5 mins followed by addition of NADPH-regenerating system and measured after 15 mins by UPLC-MS analysis
row,Structure (SMILES),IC50 [µM]
1,Cl.Cl.Cl.NCC#Cc1cnccc1-c1ccncc1,> 50
2,NCC#Cc1cnccc1-c1cncnc1,> 50
3,NCC#Cc1cnccc1-c1ccco1,7.5
4,Cl.Cl.Cl.Cl.NCc1ccc(-c2cnccc2-c2cncnc2)s1,> 25
5,Cl.Cl.Cl.NCc1ccc(-c2cnccc2-c2cccnc2)o1,> 25
6,COc1ccncc1C#CCN,> 50
7,Cl.Cl.Cl.Cl.NCc1ccc(-c2cnccc2-c2cncnc2)o1,> 50
8,NCc1ccc(-c2cnccc2-c2ccco2)s1,3.8
9,Cl.Cl.Cl.NCc1ccc(-c2cnccc2-c2ccncc2)s1,> 25
10,Cc1ccncc1C#CCN.Cl.Cl,8.6
11,CCc1ccncc1C#CCN.Cl.Cl,25

# Molecular target: Cytochrome P450 2C19 (Homo sapiens, UniProt P33261)
# Assay: Inhibition of CYP2C19 in human liver microsomes using omeprazole as substrate preincubated for 5 mins followed by addition of NADPH-regenerating system and measured after 15 mins by UPLC-MS analysis
# Sequence of Cytochrome P450 2C19 (P33261 whole entry): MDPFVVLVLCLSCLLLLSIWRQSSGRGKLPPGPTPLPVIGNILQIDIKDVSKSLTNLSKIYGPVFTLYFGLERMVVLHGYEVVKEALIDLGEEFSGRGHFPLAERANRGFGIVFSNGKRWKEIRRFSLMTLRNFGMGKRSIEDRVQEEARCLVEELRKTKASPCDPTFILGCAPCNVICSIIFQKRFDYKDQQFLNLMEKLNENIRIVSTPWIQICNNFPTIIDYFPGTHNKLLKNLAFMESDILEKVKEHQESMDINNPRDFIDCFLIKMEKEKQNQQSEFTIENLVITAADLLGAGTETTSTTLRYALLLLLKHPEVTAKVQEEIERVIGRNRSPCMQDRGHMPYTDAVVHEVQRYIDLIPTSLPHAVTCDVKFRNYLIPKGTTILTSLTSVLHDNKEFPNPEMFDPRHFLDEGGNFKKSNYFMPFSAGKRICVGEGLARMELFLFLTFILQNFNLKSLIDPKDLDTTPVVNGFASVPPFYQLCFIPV
row,Structure (SMILES),IC50 [µM]
1,NCC#Cc1cnccc1-c1ccco1,3.7
2,Cl.Cl.Cl.NCc1ccc(-c2cnccc2-c2cccnc2)o1,13
3,COc1ccncc1C#CCN,9.3
4,Cl.Cl.Cl.Cl.NCc1ccc(-c2cnccc2-c2cncnc2)o1,> 25
5,NCc1ccc(-c2cnccc2-c2ccco2)s1,1.4
6,Cc1ccncc1C#CCN.Cl.Cl,8

# Molecular target: Cytochrome P450 2C9 (Homo sapiens, UniProt P11712)
# Assay: Inhibition of CYP2C9 in human liver microsomes using diclofenac as substrate preincubated for 5 mins followed by addition of NADPH-regenerating system and measured after 15 mins by UPLC-MS analysis
# Sequence of Cytochrome P450 2C9 (P11712 whole entry): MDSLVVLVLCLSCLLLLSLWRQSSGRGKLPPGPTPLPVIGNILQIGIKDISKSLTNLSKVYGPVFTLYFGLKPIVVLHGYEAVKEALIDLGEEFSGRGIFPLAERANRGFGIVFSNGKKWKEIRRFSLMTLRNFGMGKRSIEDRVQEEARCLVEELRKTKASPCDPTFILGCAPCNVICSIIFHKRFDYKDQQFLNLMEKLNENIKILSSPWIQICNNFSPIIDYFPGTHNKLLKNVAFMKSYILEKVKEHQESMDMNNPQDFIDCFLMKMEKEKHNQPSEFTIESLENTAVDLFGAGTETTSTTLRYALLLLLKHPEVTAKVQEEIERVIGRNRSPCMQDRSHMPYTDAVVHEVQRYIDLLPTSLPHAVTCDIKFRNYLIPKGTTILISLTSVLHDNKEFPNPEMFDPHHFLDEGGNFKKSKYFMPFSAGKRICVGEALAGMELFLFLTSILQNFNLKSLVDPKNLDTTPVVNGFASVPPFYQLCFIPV
row,Structure (SMILES),IC50 [µM]
1,NCC#Cc1cnccc1-c1ccco1,2.8
2,Cl.Cl.Cl.NCc1ccc(-c2cnccc2-c2cccnc2)o1,28
3,COc1ccncc1C#CCN,28
4,Cl.Cl.Cl.Cl.NCc1ccc(-c2cnccc2-c2cncnc2)o1,> 25
5,NCc1ccc(-c2cnccc2-c2ccco2)s1,4.4
6,Cc1ccncc1C#CCN.Cl.Cl,36

# Molecular target: Cytochrome P450 2E1 (Homo sapiens, UniProt P05181)
# Assay: Inhibition of CYP2E1 in human liver microsomes using chlorzoxazone as substrate preincubated for 5 mins followed by addition of NADPH-regenerating system and measured after 15 mins by UPLC-MS analysis
# Sequence of Cytochrome P450 2E1 (P05181 whole entry): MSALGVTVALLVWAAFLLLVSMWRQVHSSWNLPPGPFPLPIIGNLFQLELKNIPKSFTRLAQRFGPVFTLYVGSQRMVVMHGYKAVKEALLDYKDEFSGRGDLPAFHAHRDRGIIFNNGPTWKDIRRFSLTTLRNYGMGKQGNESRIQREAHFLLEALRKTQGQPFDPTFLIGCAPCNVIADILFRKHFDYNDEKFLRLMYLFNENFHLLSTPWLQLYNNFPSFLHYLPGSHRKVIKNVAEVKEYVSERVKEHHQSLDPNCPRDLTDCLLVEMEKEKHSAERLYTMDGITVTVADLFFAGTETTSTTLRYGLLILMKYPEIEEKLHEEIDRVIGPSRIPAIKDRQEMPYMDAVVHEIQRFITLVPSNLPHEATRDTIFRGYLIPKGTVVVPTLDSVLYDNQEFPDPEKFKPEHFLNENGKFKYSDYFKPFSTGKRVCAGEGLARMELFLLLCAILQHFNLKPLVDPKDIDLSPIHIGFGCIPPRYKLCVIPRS
row,Structure (SMILES),IC50 [µM]
1,Cl.Cl.Cl.NCC#Cc1cnccc1-c1ccncc1,> 25
2,NCC#Cc1cnccc1-c1cncnc1,> 25
3,NCC#Cc1cnccc1-c1ccco1,1.9
4,Cl.Cl.Cl.Cl.NCc1ccc(-c2cnccc2-c2cncnc2)s1,> 50
5,Cl.Cl.Cl.NCc1ccc(-c2cnccc2-c2cccnc2)o1,31
6,COc1ccncc1C#CCN,18
7,Cl.Cl.Cl.Cl.NCc1ccc(-c2cnccc2-c2cncnc2)o1,> 50
8,NCc1ccc(-c2cnccc2-c2ccco2)s1,3.1
9,Cl.Cl.Cl.NCc1ccc(-c2cnccc2-c2ccncc2)s1,31
10,Cc1ccncc1C#CCN.Cl.Cl,19
11,CCc1ccncc1C#CCN.Cl.Cl,15

# Molecular target: Cytochrome P450 3A4 (Homo sapiens, UniProt P08684)
# Assay: Inhibition of CYP3A4 in human liver microsomes using midazolam as substrate preincubated for 5 mins followed by addition of NADPH-regenerating system and measured after 15 mins by UPLC-MS analysis
# Sequence of Cytochrome P450 3A4 (P08684 whole entry): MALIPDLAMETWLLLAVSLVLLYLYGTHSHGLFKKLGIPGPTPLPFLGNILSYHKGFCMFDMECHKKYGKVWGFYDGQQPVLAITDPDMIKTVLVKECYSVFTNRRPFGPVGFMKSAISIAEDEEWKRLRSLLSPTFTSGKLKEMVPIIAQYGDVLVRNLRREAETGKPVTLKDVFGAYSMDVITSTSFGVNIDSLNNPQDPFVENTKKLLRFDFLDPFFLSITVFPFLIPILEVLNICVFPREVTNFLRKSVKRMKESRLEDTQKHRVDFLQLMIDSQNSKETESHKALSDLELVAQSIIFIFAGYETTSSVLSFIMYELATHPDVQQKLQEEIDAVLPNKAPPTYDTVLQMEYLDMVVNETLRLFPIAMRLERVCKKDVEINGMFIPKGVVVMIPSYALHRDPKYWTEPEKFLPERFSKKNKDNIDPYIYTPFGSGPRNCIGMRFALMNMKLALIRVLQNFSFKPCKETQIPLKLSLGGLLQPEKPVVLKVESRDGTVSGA
row,Structure (SMILES),IC50 [µM]
1,Cl.Cl.Cl.NCC#Cc1cnccc1-c1ccncc1,> 25
2,NCC#Cc1cnccc1-c1cncnc1,> 25
3,NCC#Cc1cnccc1-c1ccco1,11
4,Cl.Cl.Cl.Cl.NCc1ccc(-c2cnccc2-c2cncnc2)s1,39
5,Cl.Cl.Cl.NCc1ccc(-c2cnccc2-c2cccnc2)o1,90
6,COc1ccncc1C#CCN,> 50
7,Cl.Cl.Cl.Cl.NCc1ccc(-c2cnccc2-c2cncnc2)o1,> 25
8,NCc1ccc(-c2cnccc2-c2ccco2)s1,7
9,Cl.Cl.Cl.NCc1ccc(-c2cnccc2-c2ccncc2)s1,214
10,Cc1ccncc1C#CCN.Cl.Cl,5.6
11,CCc1ccncc1C#CCN.Cl.Cl,> 50

# Molecular target: T2, Cytochrome P450 2A6 (Homo sapiens, UniProt P11509)
# T2 sequence (P11509 whole entry): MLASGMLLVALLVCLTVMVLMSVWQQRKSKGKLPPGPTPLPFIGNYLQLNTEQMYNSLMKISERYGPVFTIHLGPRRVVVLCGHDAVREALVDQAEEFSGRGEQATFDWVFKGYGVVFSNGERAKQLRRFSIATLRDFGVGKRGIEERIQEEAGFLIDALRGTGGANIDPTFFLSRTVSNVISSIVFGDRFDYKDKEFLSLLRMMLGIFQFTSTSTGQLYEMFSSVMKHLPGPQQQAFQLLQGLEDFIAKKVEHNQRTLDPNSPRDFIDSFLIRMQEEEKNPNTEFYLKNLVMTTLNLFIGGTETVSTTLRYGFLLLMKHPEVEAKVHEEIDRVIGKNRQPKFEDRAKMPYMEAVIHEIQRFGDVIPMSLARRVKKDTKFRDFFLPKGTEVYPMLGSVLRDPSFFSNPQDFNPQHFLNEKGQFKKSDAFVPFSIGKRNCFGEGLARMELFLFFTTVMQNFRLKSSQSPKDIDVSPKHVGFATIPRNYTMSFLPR
# Assay: Inhibition of CYP2A6 in human liver microsomes using coumarin as substrate preincubated for 5 mins followed by addition of NADPH-regenerating system and measured after 15 mins by UPLC-MS analysis
row,Structure (SMILES),IC50 [µM]
1,NCC#Cc1cncnc1,> 10
2,Cc1cncc(C#CCN)c1,> 10

# Molecular target: T3, Cytochrome P450 2B6 (Homo sapiens, UniProt P20813)
# T3 sequence (P20813 whole entry): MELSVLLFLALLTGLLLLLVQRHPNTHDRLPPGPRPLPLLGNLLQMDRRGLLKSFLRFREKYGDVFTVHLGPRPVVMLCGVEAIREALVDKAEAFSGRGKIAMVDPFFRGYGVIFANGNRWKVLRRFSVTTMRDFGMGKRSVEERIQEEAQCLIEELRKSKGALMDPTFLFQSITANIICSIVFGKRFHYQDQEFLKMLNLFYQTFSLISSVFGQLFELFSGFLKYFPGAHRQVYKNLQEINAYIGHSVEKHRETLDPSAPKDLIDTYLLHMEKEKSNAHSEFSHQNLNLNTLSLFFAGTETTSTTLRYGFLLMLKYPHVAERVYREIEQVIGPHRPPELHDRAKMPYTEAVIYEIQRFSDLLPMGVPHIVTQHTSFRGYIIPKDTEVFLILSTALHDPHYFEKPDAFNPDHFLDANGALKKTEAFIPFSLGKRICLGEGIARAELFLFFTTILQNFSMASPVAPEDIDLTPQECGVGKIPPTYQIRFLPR
# Assay: Inhibition of CYP2B6 in human liver microsomes using bupropion as substrate preincubated for 5 mins followed by addition of NADPH-regenerating system and measured after 15 mins by UPLC-MS analysis
row,Structure (SMILES),IC50 [µM]
1,Cl.Cl.Cl.NCC#Cc1cnccc1-c1ccncc1,> 25
2,NCC#Cc1cnccc1-c1cncnc1,> 25
3,NCC#Cc1cnccc1-c1ccco1,5
4,Cl.Cl.Cl.Cl.NCc1ccc(-c2cnccc2-c2cncnc2)s1,40
5,Cl.Cl.Cl.NCc1ccc(-c2cnccc2-c2cccnc2)o1,7.8
6,COc1ccncc1C#CCN,11
7,Cl.Cl.Cl.Cl.NCc1ccc(-c2cnccc2-c2cncnc2)o1,> 25
8,NCc1ccc(-c2cnccc2-c2ccco2)s1,0.073
9,Cl.Cl.Cl.NCc1ccc(-c2cnccc2-c2ccncc2)s1,3.5
10,Cc1ccncc1C#CCN.Cl.Cl,20
11,CCc1ccncc1C#CCN.Cl.Cl,19

# Molecular target: Cytochrome P450 2D6 (Homo sapiens, UniProt P10635)
# Assay: Inhibition of CYP2D6 in human liver microsomes using dextromethorphan as substrate preincubated for 5 mins followed by addition of NADPH-regenerating system and measured after 15 mins by UPLC-MS analysis
# Sequence of Cytochrome P450 2D6 (P10635 whole entry): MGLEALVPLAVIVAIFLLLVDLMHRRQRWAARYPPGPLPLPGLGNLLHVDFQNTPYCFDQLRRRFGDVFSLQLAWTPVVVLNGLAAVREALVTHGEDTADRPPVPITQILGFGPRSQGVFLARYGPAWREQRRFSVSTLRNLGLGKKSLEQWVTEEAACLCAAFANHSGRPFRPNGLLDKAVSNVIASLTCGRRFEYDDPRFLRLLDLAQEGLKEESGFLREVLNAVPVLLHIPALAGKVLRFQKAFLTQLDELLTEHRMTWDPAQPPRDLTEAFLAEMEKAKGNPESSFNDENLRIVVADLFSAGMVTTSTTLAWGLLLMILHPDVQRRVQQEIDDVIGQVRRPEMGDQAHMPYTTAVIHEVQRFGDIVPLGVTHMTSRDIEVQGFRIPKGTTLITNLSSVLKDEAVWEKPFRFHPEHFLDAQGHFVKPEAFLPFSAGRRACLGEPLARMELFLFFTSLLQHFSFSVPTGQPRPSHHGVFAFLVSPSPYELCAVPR
row,Structure (SMILES),IC50 [µM]
1,Cl.Cl.Cl.NCC#Cc1cnccc1-c1ccncc1,12
2,NCC#Cc1cnccc1-c1cncnc1,> 25
3,NCC#Cc1cnccc1-c1ccco1,3.9
4,COc1ccncc1C#CCN,> 50
5,NCc1ccc(-c2cnccc2-c2ccco2)s1,> 50
6,Cc1ccncc1C#CCN.Cl.Cl,2.4
7,CCc1ccncc1C#CCN.Cl.Cl,6.6

# Test system: not listed separately
# Assay: Half life in human liver microsomes at 10 uM up to 2 hrs at 37 degC in presence of NADPH-regenerating system by UPLC/MS analysis
row,Structure (SMILES),t1/2 [min]
1,Cl.Cl.Cl.NCC#Cc1cnccc1-c1ccncc1,36
2,Cl.Cl.Cl.Cl.NCc1ccc(-c2cnccc2-c2cncnc2)s1,> 120
3,Cl.Cl.Cl.NCc1ccc(-c2cnccc2-c2cccnc2)o1,> 120
4,Cl.Cl.Cl.Cl.NCc1ccc(-c2cnccc2-c2cncnc2)o1,> 120
5,Cl.Cl.Cl.NCc1ccc(-c2cnccc2-c2ccncc2)s1,32
6,Cc1ccncc1C#CCN.Cl.Cl,8.4
7,CCc1ccncc1C#CCN.Cl.Cl,9.8

# Molecular target: T4, Cytochrome P450 1A2 (Homo sapiens, UniProt P05177)
# T4 sequence (P05177 whole entry): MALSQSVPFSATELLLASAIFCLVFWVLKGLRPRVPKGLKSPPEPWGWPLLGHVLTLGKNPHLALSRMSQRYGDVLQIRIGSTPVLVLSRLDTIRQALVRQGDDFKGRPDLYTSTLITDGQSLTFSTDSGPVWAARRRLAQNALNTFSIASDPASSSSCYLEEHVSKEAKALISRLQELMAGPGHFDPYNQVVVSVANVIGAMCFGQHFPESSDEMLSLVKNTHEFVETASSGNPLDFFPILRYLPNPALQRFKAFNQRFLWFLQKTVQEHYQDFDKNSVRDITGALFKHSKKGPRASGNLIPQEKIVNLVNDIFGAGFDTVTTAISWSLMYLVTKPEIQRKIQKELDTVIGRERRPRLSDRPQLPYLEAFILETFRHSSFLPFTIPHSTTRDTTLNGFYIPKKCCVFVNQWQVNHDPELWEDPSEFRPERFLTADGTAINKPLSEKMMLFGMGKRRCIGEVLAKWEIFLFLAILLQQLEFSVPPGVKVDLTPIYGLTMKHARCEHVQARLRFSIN
# Assay: Inhibition of CYP1A2 in human liver microsomes using phenacetin as substrate preincubated for 5 mins followed by addition of NADPH-regenerating system and measured after 15 mins by UPLC-MS analysis
row,Structure (SMILES),IC50 [µM]
1,Cl.Cl.Cl.NCC#Cc1cnccc1-c1ccncc1,21
2,NCC#Cc1cnccc1-c1cncnc1,> 25
3,NCC#Cc1cnccc1-c1ccco1,1.4
4,Cl.Cl.Cl.Cl.NCc1ccc(-c2cnccc2-c2cncnc2)s1,25
5,Cl.Cl.Cl.NCc1ccc(-c2cnccc2-c2cccnc2)o1,4.4
6,COc1ccncc1C#CCN,25
7,Cl.Cl.Cl.Cl.NCc1ccc(-c2cnccc2-c2cncnc2)o1,7.6
8,NCc1ccc(-c2cnccc2-c2ccco2)s1,0.2
9,Cl.Cl.Cl.NCc1ccc(-c2cnccc2-c2ccncc2)s1,4.8
10,Cc1ccncc1C#CCN.Cl.Cl,11
11,CCc1ccncc1C#CCN.Cl.Cl,> 50
